Biological target: Human immunodeficiency virus type 1 protease (Human immunodeficiency virus 1, UniProt Q72874)
Assay: Inhibition constant against HIV-1 protease

| SMILES | Ki [nM] |
| --- | --- |
| COc1ccc(S(=O)(=O)N(C[C@@H](O)[C@H](Cc2ccccc2)NC(=O)OC(C)(C)C)OC2CCCCC2)cc1 | 2.8 |
| COc1ccc(S(=O)(=O)N(CC(O)C(Cc2ccccc2)NC(=O)[C@H](CC(N)=O)NC(=O)c2ccc3ccccc3n2)OC2CCCC2)cc1 (some centres not stated) | < 0.005 |
| COc1ccc(S(=O)(=O)N(C[C@@H](O)[C@H](Cc2ccccc2)NC(=O)OC(C)(C)C)Oc2ccccc2)cc1 | 22 |
| O=C(N[C@@H](Cc1ccccc1)[C@H](O)CN(OC1CCCC1)S(=O)(=O)c1ccc(O)cc1)O[C@H]1CO[C@H]2OCC[C@H]21 | < 0.005 |
| Nc1ccc(S(=O)(=O)N(C[C@@H](O)[C@H](Cc2ccccc2)NC(=O)O[C@H]2CO[C@H]3OCC[C@H]32)OC2CCCC2)cc1 | < 0.005 |
| Nc1cccc(S(=O)(=O)N(C[C@@H](O)[C@H](Cc2ccccc2)NC(=O)O[C@H]2CO[C@H]3OCC[C@H]32)OC2CCCC2)c1 | < 0.005 |
| COC(=O)N[C@H](C(=O)N[C@@H](Cc1ccccc1)[C@H](O)CN(OC1CCCC1)S(=O)(=O)c1ccc(OC)cc1)C(C)(C)C | 0.09 |
| O=C(N[C@@H](Cc1ccccc1)[C@H](O)CN(OC1CCCC1)S(=O)(=O)c1ccc2c(c1)OCO2)O[C@H]1CO[C@H]2OCC[C@H]21 | < 0.005 |
| COc1ccc(S(=O)(=O)N(C[C@@H](O)[C@H](Cc2ccccc2)NC(=O)OC(C)(C)C)OCC(C)C)cc1 | 4 |
| COc1ccc(S(=O)(=O)N(C[C@@H](O)[C@H](Cc2ccccc2)NC(=O)O[C@@H]2COC3OCCC32)OC2CCCC2)cc1 (some centres not stated) | < 0.005 |
| O=C(N[C@@H](Cc1ccccc1)[C@H](O)CN(OC1CCCCC1)S(=O)(=O)c1ccc(O)cc1)O[C@H]1CO[C@H]2OCC[C@H]21 | < 0.005 |
| O=C(N[C@@H](Cc1ccccc1)[C@H](O)CN(OC1CCCCC1)S(=O)(=O)c1ccc2c(c1)OCCO2)O[C@H]1CO[C@H]2OCC[C@H]21 | < 0.005 |
| Nc1cccc(S(=O)(=O)N(C[C@@H](O)[C@H](Cc2ccccc2)NC(=O)O[C@H]2CO[C@H]3OCC[C@H]32)OC2CCCCC2)c1 | 0.005 |
| Nc1ccc(S(=O)(=O)N(C[C@@H](O)[C@H](Cc2ccccc2)NC(=O)O[C@H]2CO[C@H]3OCC[C@H]32)OC2CCCCC2)cc1 | 0.018 |
| COc1ccc(S(=O)(=O)N(C[C@@H](O)[C@H](Cc2ccccc2)NC(=O)O[C@H]2CO[C@H]3OCC[C@H]32)OC2CCCC2)cc1 | < 0.005 |
| COc1ccc(S(=O)(=O)N(C[C@@H](O)[C@H](Cc2ccccc2)NC(=O)OC(C)(C)C)OCC2CCCCC2)cc1 | 12 |
| O=C(N[C@@H](Cc1ccccc1)[C@H](O)CN(OC1CCCCC1)S(=O)(=O)c1ccc2c(c1)OCO2)O[C@H]1CO[C@H]2OCC[C@H]21 | < 0.005 |
| CCC(CC)ON(C[C@@H](O)[C@H](Cc1ccccc1)NC(=O)OC(C)(C)C)S(=O)(=O)c1ccc(OC)cc1 | 3.2 |
| COc1ccc(S(=O)(=O)N(C[C@@H](O)[C@H](Cc2ccccc2)NC(=O)OC2CCOC2)OC2CCCC2)cc1 (some centres not stated) | 0.19 |
| COc1ccc(S(=O)(=O)N(C[C@@H](O)[C@H](Cc2ccccc2)NC(=O)OC(C)(C)C)OC2CCCC2)cc1 | 1.6 |
| O=C(N[C@@H](Cc1ccccc1)[C@H](O)CN(OC1CCCC1)S(=O)(=O)c1ccc2c(c1)OCCO2)O[C@H]1CO[C@H]2OCC[C@H]21 | < 0.005 |
| COc1ccc(S(=O)(=O)N(C[C@@H](O)[C@H](Cc2ccccc2)NC(=O)OC(C)(C)C)OC(C)C)cc1 [ENTRY A] | 14 |

From ChEMBL document CHEMBL1142752, “Synthesis and antiviral activities of novel N-alkoxy-arylsulfonamide-based HIV protease inhibitors” (Bioorg Med Chem Lett, 2005)
